From US20120009124A1, “USE OF BUFFERS FOR RADIONUCLIDE COMPLEXATION” (GUERBET, priority 2009, published 2012)
Like-named read-outs stand apart in the source and are kept apart here. Where a SMILES comes first, the peptide text is derived from it. [ ]: non-standard residue; d: D form.

Columns and labels:
[1] = Excerpt: It is also possible to combine several buffers in combination (buffer mixtures) in particular so as to optimize the buffering capacity ranges and the choice of the chelates and of the biovectors, it being specified that not all chelates necessarily have the same complexation, depending on the buffer under consideration.
[2] = molecular target: CXCR4 (Homo sapiens, UniProt P61073); assay: IC50 of cyclic peptides for targeting CXCR4; assay type: binding; conditions: peptide biovectors for targeting CXCR4
Chain of CXCR4 (P61073 whole entry, species assumed): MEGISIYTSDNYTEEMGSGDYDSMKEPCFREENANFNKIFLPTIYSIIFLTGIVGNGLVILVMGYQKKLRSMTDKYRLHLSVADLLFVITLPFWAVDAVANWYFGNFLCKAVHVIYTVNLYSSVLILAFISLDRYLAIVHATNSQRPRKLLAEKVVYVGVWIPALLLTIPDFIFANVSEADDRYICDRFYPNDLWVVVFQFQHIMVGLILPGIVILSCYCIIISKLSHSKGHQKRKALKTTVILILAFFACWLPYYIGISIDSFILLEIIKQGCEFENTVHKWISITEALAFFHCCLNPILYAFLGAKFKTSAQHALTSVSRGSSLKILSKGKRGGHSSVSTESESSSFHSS

Molecule	IC50 [2]	buffering capacity (pKa value +/-1) [1]	further results
O=C(O)O [carbonate]			buffering capacity (pKa value +/-1) ([1]; pH range): 5.35-11.33
N=C(N)NCCC[C@@H]1NC(=O)[C@H](CCCNC(=N)N)NC(=O)[C@@H](Cc2ccc(O)cc2)NC(=O)CNC(=O)[C@H](Cc2c[nH]c3ccccc23)NC1=O [Trp] (cyclo([dY]RRWG))	13 nM		
O=C(O)C(O)C(O)C(=O)O (centres unmarked) [tartrate]		2.04-5.37	
phosphate		1.12-13.67	
N=C(N)NCCC[C@@H]1NC(=O)[C@H](CCCNC(=N)N)NC(=O)[C@@H](Cc2ccc(O)cc2)NC(=O)CNC(=O)[C@H](Cc2nc3ccccc3s2)NC1=O [Bth]	18 nM		
